This passage reports IC50 results from PMC3102611, “The inhibition of the mammalian DNA methyltransferase 3a (Dnmt3a) by dietary black tea and coffee polyphenols” (2011).

The test has as its target T1, Dnmt3a (Mus musculus, UniProt O88508).
T1 construct: C-terminal catalytic domain (Dnmt3a-C)
As to the kind of experiment: Biotin-avidin DNA methylation kinetics assay with [methyl-3H]AdoMet, purified Dnmt3a-C. Format: biochemical.

T1 sequence (O88508 608-908 limits assumed): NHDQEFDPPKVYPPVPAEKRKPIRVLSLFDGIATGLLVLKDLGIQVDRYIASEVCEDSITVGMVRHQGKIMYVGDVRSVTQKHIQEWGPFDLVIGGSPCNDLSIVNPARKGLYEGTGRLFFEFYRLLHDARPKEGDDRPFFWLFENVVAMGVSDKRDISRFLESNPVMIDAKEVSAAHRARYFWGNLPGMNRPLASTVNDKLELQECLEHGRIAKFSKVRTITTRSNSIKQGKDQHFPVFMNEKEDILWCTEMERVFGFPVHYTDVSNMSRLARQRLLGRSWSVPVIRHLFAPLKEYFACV

As to `COC(=O)[C@]1(OC(=O)/C=C/c2ccc(O)c(O)c2)C[C@H](OC(=O)/C=C/c2ccc(O)c(O)c2)[C@H]2O[C@@](C)(OC)[C@](C)(OC)O[C@@H]2C1` [N12, 1,3-dicaffeoyl-muco-quinic acid diacetal], the IC50 is 35 µM. That is a double-digit micromolar value.

For orientation: IC50 means the concentration needed to halve the response being measured.
